Assays:
[1] = system: methicillin-resistant Staphylococcus aureus (MRSA); experiment: In vitro bactericidal assay against MRSA isolates (viable CFU/mL after treatment); conditions: average of three MRSA isolates, 24 hours, varying CA concentration
Method: Note that efficacy is reported in terms of the viable bacterial concentration (in CFU/mL) remaining after 24 hours of treatment with the drug product (in compliance with CLSI guidelines).
In this example, bacteria (MRSA isolates) are put onto fresh plates and allowed to grow for 30 hours. A suspension inoculum is made from the plates (e.g., a 1 McFarland solution in sterile water), from which the turbidity may be optically read. A standard inoculum may then be cultured in media and 100 μL of that solution combined with 100 μL of drug product and grown at various dilutions for 16-20 hrs. Duplicates may then be examined (e.g., following pelleting at 7,000 RPM for 15 min, resuspended in PBS and serial dilutions plated and grown for 24 hrs.). Duplicate plates at multiple dilutions may then be imaged and colonies counted.
For example, in each of these examples in FIG. 20, the fatty acid to amino acid in the compositions was at a ratio of about 1:0.76 (fatty acid:amino acid) by weight when diluted and used to treat MRSA. GS-1, GS-2 and GS-3 all had fatty acid:amino acid aqueous mixtures with approximately 32% w/w of total active pharmaceutical ingredients (APIs), which were diluted at 1:128 in water, resulting in a concentration of about 0.25% w/w total APIs. […]

bacteria = experiment: Variation of the amino acid combined with UCA, bactericidal effect; type: cell-based
Excerpt: Thus in some variations, the amino acid may be limited to a charged (and particularly the positively charged) amino acids, such as amino acid having an electrically charged basic side chain.

| Structure (SMILES) | effect of CA on efficacy of the UCA and LARG composition [1] | bactericidal effect when used as the amino acid with the fatty acid (bacteria) |
| --- | --- | --- |
| CCCCCCCCCCCCCCCCO [CA, cetyl alcohol] | clear inhibitory effect |  |
| N=C(N)NCCC[C@@H](N)C(=O)O [D-Arginine] |  | ineffective |

— patent publication US12383524B2, “Therapeutic compositions of undecylenic acid and arginine” (Wintermute Biomedical, Inc., priority 2018, dated 2025)
